Results published in patent US20050020576A1, “Kappa agonist compounds and pharmaceutical formulations thereof” (priority 1996, published 2005).
Structures can show the parent of a compound that is named as a salt.

Biological target: cloned human kappa receptor (Homo sapiens, UniProt P41145)
Assay: biochemical
Type: binding
Set-up: (3H)-Diprenorphin, % / k [3H] Diprenorphin, %: dose or concentration left out as unconfirmed
Conditions: not given

Sequence of cloned human kappa receptor (P41145 whole entry): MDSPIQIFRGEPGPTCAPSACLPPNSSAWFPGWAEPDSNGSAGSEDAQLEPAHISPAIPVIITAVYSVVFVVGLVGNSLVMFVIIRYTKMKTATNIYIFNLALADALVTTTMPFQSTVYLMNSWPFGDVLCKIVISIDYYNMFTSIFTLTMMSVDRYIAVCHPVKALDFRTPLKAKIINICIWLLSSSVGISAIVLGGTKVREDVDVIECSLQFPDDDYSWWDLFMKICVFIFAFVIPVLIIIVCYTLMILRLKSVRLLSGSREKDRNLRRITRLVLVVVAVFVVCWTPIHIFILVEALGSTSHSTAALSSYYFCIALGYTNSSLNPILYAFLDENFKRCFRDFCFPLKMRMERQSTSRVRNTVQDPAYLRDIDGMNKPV

Row | Molecule | [3H]-Diprenorphin, % @ 1 μM [% @ 1 μM] | (3H)-Diprenorphin, % [% @ 1 mM]
1 | CN(C(=O)Cc1ccc(C(F)(F)F)cc1NC(=O)/C=C\C(=O)O)C1CCCCC1N1CCCC1 (racemic) [Example 4b, (Z)-4-[2-((±)-trans-2-Amino-4-trifluoromethyl-N-methyl-N-[2-(1-pyrrolidinyl)-cyclohexyl]-phenylaetamido)]4-oxo-2-butenoic acid] | 22 | –
2 | CC(=O)N1CCN(C(=O)Cc2ccccn2)C(CN2CCCC2)C1.Cl (racemic) [Example 1gg, 4-Acetyl-1-[(2-pyridyl)acetyl]-2-(R,S)-[(1-pyrrolidinyl)methyl]piperazine hydrochloride] | – | 27
3 | Cl.O=CN1CCN(C(=O)Cc2ccccn2)C(CN2CCCC2)C1 (racemic) [Example 1hh, 4-Formyl-1-[(2-pyridyl)acetyl]-2-(R,S)-[(1-pyrrolidinyl)methyl]piperazine hydrochloride] | – | 0
4 | (±)-trans-3-N-Methyl-N-[2-(1-pyrrolidinyl)cyclohexyl]-(trans-3-furyl)acetamide hydrochloride [Example 4f] | 0 | –

Same assay, conditions: Ki (nM) [3H]-Diprenorphin κ

Row | Molecule | Ki [nM]
5 | COc1cc(CC(=O)N(C)[C@H](CN2CCCC2)c2ccccc2)c(S(=O)(=O)N(C)Cc2ccccc2)cc1OC [Example 3xx, 2-(2-N-Benzyl-2-N-methylsulfamoyl-3,4-dimethoxyphenyl)-N-methyl-N-[(1S)-1-phenyl-2-(1-pyrrolidinyl)ethyl]acetamide hydrochloride] | 0.83
6 | COc1cc(CC(=O)N(C)[C@H](CN2CC[C@H](O)C2)c2ccccc2)c(S(=O)(=O)N2CCN(C)CC2)cc1OC [Example 139] | 4.2
7 | COc1cc(CC(=O)N(C)[C@H](CN2CCCC2)c2ccccc2)c(S(=O)(=O)N(C)CC(=O)O)cc1OC [Example 142, N-Methyl-[[2-(N-sulfamoyl)-4,5-dimethoxyphenyl]-N-methyl-N-[(1S)-1-phenyl-2-[1-(pyrrolidinyl)ethyl]]acetamido]glycine] | 13
8 | COc1cc(CC(=O)N(C)[C@H](CN2CCCC2)c2ccccc2)c(S(=O)(=O)N2CCOCC2)cc1OC [Example 140, 2-[2-N-(Morpholinesulfamoyl)-4,5-dimethoxyphenyl]-N-methyl-N-[(1S)-1-phenyl-2-[1-(pyrrolidinyl)ethyl]]acetamide] | 0.56
9 | CC(C)C(=O)Nc1cccc([C@@H](CN2CCCC2)N(C)C(=O)Cc2ccccc2NC(=O)C(C)C)c1 [Example 3qq, 2-(2-Iso-butyramidophenyl)-N-methyl-N-[(1S)-1-(3-isobutyramido-phenyl)-2-(1-pyrrolidinyl)ethyl]acetamide Methanesulfonic acid salt] | 21
10 | COc1cccc(C(CN2CCCC2)N(C)C(=O)Cc2ccccc2NS(C)(=O)=O)c1 (racemic) [Example 3uu, (R,S)-1-[2-(Methanesulfonylamino)phenyl-N-methylacetamido]-1-(3-methoxyphenyl)-2-(1-pyrrolidino)-ethane, methanesulfonic acid salt] | 17.5
11 | CCOC(=O)/C=C/C(=O)Nc1cc(Cl)c(Cl)cc1CC(=O)N(C)[C@H](CN1CCCC1)c1ccccc1 [Example 3y, (E) Ethyl 4-[2-(2-amino-4,5-dichlorophenyl)-N-methyl-N-[(1S)-1-phenyl)-2-[1-pyrrolidinyl]ethyl]acetamido]4-oxo-2-butenoate hydrochloride] | 0.35
12 | CN(C(=O)Cc1cc2c(cc1S(=O)(=O)N(C)Cc1ccccc1)OCO2)[C@H](CN1CCCC1)c1ccccc1 [Example 131, 2-[2-(N-Benzyl-N-methylsulfamoyl)-4,5-methylenedioxyphenyl]-N-methyl-N-[(1S)-1-phenyl-2-[(1-pyrrolidinyl)ethyl]]acetamide] | 0.22
13 | COc1cc(CC(=O)N(C)[C@H](CN2CCCC2)c2ccccc2)c(S(=O)(=O)N(C)Cc2ccccc2)cc1OC [Example 148, 2-[2-(N-Benzyl-N-methylsulfamoyl)-4,5-dimethoxyphenyl]-N-methyl-N-[(1S)-1-phenyl-2-[(1-pyrrolidinyl)ethyl]]acetamide] | 0.83
14 | CN(C(=O)Cc1ccccc1NS(C)(=O)=O)C(CN1CCCC1)c1cccc(O)c1 (racemic) [Example 3vv, (R,S)-1-[2-(Methanesulfonylamino)phenyl-N-methylacetamido]-1-(3-hydroxyphenyl)-2-(1-pyrrolidino)-ethane, methanesulfonic acid salt] | 19.5
15 | COc1cc(CC(=O)N(C)[C@H](CN2CC[C@H](O)C2)c2ccccc2)c(S(=O)(=O)N2CCCC2)cc1OC [Example 135, 2-[2-(N-Pyrrolidinesulfamoyl)-4,5-dimethoxyphenyl]-N-methyl-N-[(1S)-1-phenyl-2-[1-(3S)-(3-hydroxypyrrolidinyl)ethyl]]acetamide] | 0.66
16 | CN(C(=O)Cc1ccccc1NS(C)(=O)=O)[C@H](CN1CCCC1)c1cccc(NS(C)(=O)=O)c1 [Example 3pp, 2-(2-Methanesulfonamidophenyl)-N-methyl-N-[(1S)-1-(3-methanesulfon-amidophenyl)-2-(1-pyrrolidinyl)ethyl]acetamide Hydrochloride] | 4.6

Same assay, conditions: Ki, nM 3H-Diprenorphin

Row | Molecule | Ki [nM]
17 | CNS(=O)(=O)c1ccc(CC(=O)N2CCN(C(=O)OC)CC2CN2CCCC2)cc1 (racemic) [Example 1f, Methyl-4-[-4-[N-methylamino)sulfamyl]phenyl)acetyl]-3-(R,S)-[(1-pyrrolidinyl)methyl]-1-piperazinecarboxylate hydrochloride] | 53.5
18 | COC(=O)N1CCN(C(=O)Cc2ccc(C(F)(F)F)cc2N)C(CN2CCC[C@H]2CO)C1 (mixture of isomers) [Example 1p, Methyl-4-[(2-amino-4-α,α,α-trifluoromethylphenyl)acetyl]-3-(R,S)-[(2-(S)-pyrrolidinemethanol)methyl]-1-piperazinecarboxylate hydrochloride] | 11
19 | CS(=O)(=O)N1CCN(C(=O)Cc2ccc(C(F)(F)F)cc2)C(CN2CC[C@H](OC(=O)Cc3ccc(C(F)(F)F)cc3)C2)C1 (stereo partly drawn) [Example 1mm, 4-Methylsulphonyl-1-[(4-α,α,α-triflouromethylphenyl)acetyl]-2-(R,S)-[3-(S)-(4′-α,α,α-triflouromethylphenyl acetate)-1-(pyrrolidinyl)methyl]piperazine hydrochloride] | 287
20 | COC(=O)N1CCN(C(=O)Cc2ccc(C(F)(F)F)cc2)C(CN2CC[C@H](OC(=O)Cc3ccc(C(F)(F)F)cc3)C2)C1 (mixture of isomers) [Example 1j, Methyl-4-[(4-a,a,a-trifluoromethylphenyl)acetyl]-3-(R,S)-[3-(S)-(4′-α,α,α-trifluoro methylphenylacetate)-1-(pyrrolidinyl)methyl]-1-piperazinecarboxylate hydrochloride] | 13
21 | COC(=O)N1CCN(C(=O)Cc2ccc(C(F)(F)F)cc2N(S(C)(=O)=O)S(C)(=O)=O)C(CN2CCCC2)C1 (racemic) [Example 1b, Methyl-4-[(2-[N,N-bis-methylsulfonamido]-4-trifluoromethyphenyl)acetyl]-3-(R,S)-[(1-pyrrolidinyl)-methyl]-1-piperazinecarboxylate dihydrochloride] | 7

Same assay, conditions: Table IA; read-out: Ki(nM) (3H)-Diprenorphin

Row | Molecule | Ki [nM]
22 | CC(=O)N1CCN(C(=O)Cc2ccc(S(C)(=O)=O)cc2)C(CN2CC[C@H](OC(=O)Cc3ccc(S(C)(=O)=O)cc3)C2)C1 (mixture of isomers) [Example 1u, 4-Acetyl-1-[(4-methylsulfonyl]phenyl)acetyl]-2-(R,S)-[3-(S)-(4′-methylsulfonylphenyl acetate)-1-(Pyrrolidinyl)methyl]piperazine hydrochloride] | 1780

Same assay, conditions: Table IIIA; read-out: Ki (nM) [3H]-Diprenorphin κ

Row | Molecule | Ki [nM]
23 | CN(C(=O)Cc1ccc(C(F)(F)F)cc1NCC(=O)O)[C@H](CN1CCCC1)c1ccccc1 [Example 3b, N-[(4-Trifluoromethylphenyl)-N-methyl-N-{[1S]-1-phenyl-2-[1-pyrrolidinyl)]ethyl}acetamido]glycine hydrochloride] | 464

Same assay, conditions: read-out: Ki (nM) [3H]-Diprenorphin κ

Row | Molecule | Ki [nM]
24 | CN(C(=O)Cc1ccccc1NC(=O)/C=C\C(=O)O)[C@H](CN1CCCC1)c1ccccc1 [Example 3aa, (Z)-4-[2-(2-Aminophenyl)-N-methyl-N-[(1S)-1-phenyl)-2-(1-pyrrolidinyl]-ethyl]acetamido]4-oxo-2-butenoic acid hemimaleate] | 5280

Same assay, conditions: read-out: Ki(nM) [3H]-Diprenorphin κ

Row | Molecule | Ki [nM]
25 | COc1cc(CC(=O)N(C)[C@H](CN2CCCC2)c2ccccc2)c(S(=O)(=O)NC(C)(C)C)c(OC)c1OC [Example 144, 2-[2-(N-t-Butylsulfamoyl)-3,4,5-trimethoxyphenyl]-N-methyl-N-[(1S)-1-phenyl-2-[(1-pyrrolidinyl)ethyl]]acetamide] | 0.17
26 | COc1cc(CC(=O)N(C)[C@H](CN2CC[C@H](O)C2)c2ccccc2)c(S(=O)(=O)N(C)C)cc1OC [Example 137, 2-[2-(N-Dimethylsulfamoyl)-4,5-dimethoxyphenyl]-N-methyl-N-[(1S)-1-phenyl-2-[1-(3S)-(3-hydroxypyrrolidinyl)ethyl]]acetamide] | 0.83

Test system: not given
Assay: not given
Conditions: not given

Row | Molecule | melting point
27 | CN(C(=O)C(c1ccccc1)c1ccccc1)C1CCCCC1N1CCCC1 (racemic) (as salt: HCl) [Example 5s, (±)-trans-N-Methyl-N-[2-(1-pyrrolidinyl)cyclohexyl]2,2-dphenylacetamide Hydrochloride] | 295 to 297 °C (dec.)
28 | CS(=O)(=O)c1ccc(CC(=O)N2CCN(S(C)(=O)=O)CC2CN2CCCC2)cc1 (racemic) (as salt: hydrochloride) [(R,S-8b), (R,S)-4-Methanesulfonyl-1-[(4-methylsulfonylphenyl)acetyl]-2-[(1-pyrrolidinyl)-methyl]piperazine hydrochloride] | 185 to 188 °C
29 | CN(C(=O)Cc1ccc(C(F)(F)F)cc1NCC(=O)O)C1CCCCC1N1CCCC1 (stereo not shown) (as salt: HCl) | 178 to 180 °C (dec.)
30 | Cl.NS(=O)(=O)N1CCN(C(=O)Cc2ccc(Cl)c(Cl)c2)[C@H](CN2CCCC2)C1 | 183 to 185 °C
31 | COC(=O)N1CCN(C(=O)Cc2ccccc2N)C(CN2CCCC2)C1 (racemic) (as salt: hydrochloride) [(R,S-9f), (R,S)-Methyl 4-[(2-aminophenyl)acetyl]-3-[(1-pyrrolidinyl)-methyl]-1-piperazine-carboxylate dihydrochloride] | 195 °C (dec.)
